According to US20200087248A1, “Fluoroallylamine Derivative And Use Thereof” (SICHUAN KELUN-BIOTECH BIOPHARMACEUTICAL CO., LTD., priority 2017, published 2020):
Where a name gives a salt, the structure may show the parent alone.

Key:
[1] = Stability in liver microsomes, dog; format: in vitro ADME
Description: (§1) Stability of Liver Microsomes
(§2) Formulation of a compound reservation solution: the test compound, diclofenac acid, testosterone and propafenone were weighted in appropriate amounts, and calibrated by adding about 1 mL of DMSO to provide a 10 mM reservation solution, then stored in a 4° C. refrigerator;
(§3) Formulation of a compound working solution: 10 μL of the reservation solution were added to 990 μL acetonitrile-water (1:1) to provide a middle solution having a concentration of 100 μM, and 120 μL of the middle solution is further diluted with 2880 μL PBS to provide a 4 μM working solution; […]
(§4) After being incubated for a certain period of time, an equivalent volume of cooled acetonitrile (4° C.) was added to terminate the reaction, and LC-MS/MS was used to determine the concentrations of the compound after being incubated in various liver microsomes for different time periods. With the incubation time as the horizontal ordinate and the natural logarithm of the percentages of the remained compound at each time point as the longitudinal coordinate, a diagram was plotted, wherein the slope was the velocity constant (Ke), and the half-life (T1/2) and clearance rate (CLliver) of the compound were calculated according to the following equation to evaluate the staiblity of the compound in the liver microsomes. […]

[2] = Stability in liver microsomes, human; format: in vitro ADME
Description: as §1, §2, §3, §4

[3] = Stability in liver microsomes, monkey; format: in vitro ADME
Description: as §1, §2, §3, §4

[4] = Stability in liver microsomes, mouse; format: in vitro ADME
Description: as §1, §2, §3, §4

[5] = Rat PK experiment; format: in vivo, Male rats; settings: male; for AUC(0-inf) / Cmax / half-life: rat blood plasma
Description: Male rats were intravenously (iv) and intragastrically (po) administered the test compounds respectively, and LC-MS/MS was used to measure the blood plasma concentration of the compound in the bodies of the rat. The main pharmacokinetic parameters were calculated by utilizing WinNonlin 6.3 software.

[6] = Stability in liver microsomes, rat; format: in vitro ADME
Description: as §1, §2, §3, §4

T1/2 in liver microsomes ([1]; Dog): long half-life
half-life ([1]; dog, liver microsomes, read-out: T1/2 in liver microsomes): 118 h
T1/2 in liver microsomes [2]: long half-life
half-life ([2]; liver microsomes, read-out: T1/2 in liver microsomes): 44.6 h
T1/2 in liver microsomes ([3]; Monkey): long half-life
half-life ([3]; monkey, liver microsomes, read-out: T1/2 in liver microsomes): 20.8 h
T1/2 in liver microsomes ([4]; Mouse): long half-life
half-life ([4]; mouse, liver microsomes, read-out: T1/2 in liver microsomes): 13.8 h
bioavailability ([5]; plasma, rat, po 3 mg/kg): 89.9%
AUC(0-inf) ([5]; iv 3 mg/kg): 1.16 ± 0.12 µg·h/mL
Cmax ([5]; iv 3 mg/kg): 1.04 ± 0.181 µg/mL
half-life ([5]; iv 3 mg/kg): 1.43 ± 0.15 h
AUC(0-inf) ([5]; po 3 mg/kg): 1.04 ± 0.129 µg·h/mL
Cmax ([5]; po 3 mg/kg): 0.343 ± 0.024 µg/mL
half-life ([5]; po 3 mg/kg): 1.37 ± 0.01 h
T1/2 in liver microsomes ([6]; Rat): long half-life
half-life ([6]; rat, liver microsomes, read-out: T1/2 in liver microsomes): 14.2 h
Compound: CC1(C)Cc2cc(OC/C(=C/F)CN)ccc2C(=O)N1 [HC38-E, (E)-6-((2-(aminomethyl)-3-fluoroallyl)oxy)-3,3-dimethyl-3,4-dihydroisoquinolin-1(2H)-one hydrochloride]
